Results taken from paper PMC8730463, “The human gut symbiont Ruminococcus gnavus shows specificity to blood group A antigen during mucin glycan foraging: Implication for niche colonisation in the gastrointestinal tract” (PLoS Biology, 2021).

Tests used:
RgGH98 = target: T1, RgGH98; experiment: crystal structure ([…] Å), ITC and STD NMR; format: binding, Mediterraneibacter gnavus
T1 construct: gene RGna_RS10325; 44–946 aa (N-term GBLD, catalytic domain, C-term domain)

[1] = target: T2, Ulex Europaeus Agglutinin I (UEA I) (Ulex europaeus, UniProt P22972); experiment: ITC (control lectin); format: binding
T2 sequence (P22972 1-243): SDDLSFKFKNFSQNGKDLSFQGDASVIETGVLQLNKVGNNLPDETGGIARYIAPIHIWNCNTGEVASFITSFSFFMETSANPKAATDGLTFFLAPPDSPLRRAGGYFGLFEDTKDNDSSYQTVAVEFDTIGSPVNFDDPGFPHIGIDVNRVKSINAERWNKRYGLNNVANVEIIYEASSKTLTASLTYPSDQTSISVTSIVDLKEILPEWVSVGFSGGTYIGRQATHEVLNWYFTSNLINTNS

Row | Compound | Kd (RgGH98) [µM] | Kd [1] [µM]
1 | CC(=O)N[C@H]1[C@@H](O[C@H]2[C@@H](O)[C@@H](CO)O[C@@H](O[C@H]3[C@H](O)[C@@H](NC(C)=O)C(O)O[C@@H]3CO)[C@@H]2O[C@@H]2O[C@@H](C)[C@@H](O)[C@@H](O)[C@@H]2O)O[C@H](CO)[C@H](O)[C@@H]1O (some centres unmarked) [BgA II, blood group A tetrasaccharide type II] | 490 | –
2 | CC(=O)N[C@H]1C(O)O[C@H](CO)[C@@H](O[C@@H]2O[C@H](CO)[C@H](O)[C@H](O)[C@H]2O[C@@H]2O[C@@H](C)[C@@H](O)[C@@H](O)[C@@H]2O)[C@@H]1O (some centres unmarked) [BgH, blood group H trisaccharide] | – | 10.3
